Measured values as given in BindingDB's records for patent US11180503 (ELI LILLY AND COMPANY, 2021).

Biological target: Dual specificity calcium/calmodulin-dependent 3',5'-cyclic nucleotide phosphodiesterase 1B (Homo sapiens, UniProt Q01064)
Assay: Ca2+-Calmodulin Dependent PDE Enzyme Assays
Experimental: PDE1B, PDE1A, and PDE1C are cloned and purified following standard protein generation procedures. The assay buffer is prepared to give a final concentration in the assay of 50 mM Tris-HCl, 50 mM MgCl2, 4 mM CaCl2, 0.1% Bovine serum albumin and 6 U/ml Calmodulin in water, at pH 7.5.

Chain of Dual specificity calcium/calmodulin-dependent 3',5'-cyclic nucleotide phosphodiesterase 1B (Q01064 whole entry): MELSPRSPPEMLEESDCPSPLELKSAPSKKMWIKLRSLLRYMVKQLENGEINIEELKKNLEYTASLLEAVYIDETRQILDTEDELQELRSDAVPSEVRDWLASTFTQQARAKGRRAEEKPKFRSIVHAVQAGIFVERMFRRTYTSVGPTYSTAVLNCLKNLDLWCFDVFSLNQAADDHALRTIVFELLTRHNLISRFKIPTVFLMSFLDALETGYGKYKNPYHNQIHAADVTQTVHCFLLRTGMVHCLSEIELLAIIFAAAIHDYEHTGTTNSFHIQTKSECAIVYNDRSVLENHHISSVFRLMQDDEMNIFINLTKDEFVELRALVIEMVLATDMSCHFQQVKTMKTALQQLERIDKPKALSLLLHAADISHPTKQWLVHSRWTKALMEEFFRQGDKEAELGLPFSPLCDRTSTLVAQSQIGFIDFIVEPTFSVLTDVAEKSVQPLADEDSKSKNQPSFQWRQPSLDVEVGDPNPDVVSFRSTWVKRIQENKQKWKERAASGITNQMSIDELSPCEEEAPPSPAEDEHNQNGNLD

Compound	IC50 [nM]
CCCCn1c(=O)c2nnc(C3(C4CC4)CC3)n2c2ncc(CO)cc21 [US11180503, Example 11]	0.928
CCCCn1c(=O)c2nnc(C3(C4CC4)CC3)n2c2ncc(CC)cc21 [US11180503, Example 9]	0.419
